Key:
[1] = molecular target: L. chagasi PTR1 and DHFR-TS; design: method as in PMID 31409157; conditions: L. chagasi PTR1 vs DHFR-TS; cited from earlier work
[2] = test system: Leishmania major PTR1 (LmPTR1); design: method as in PMID 34063939; conditions: previous study; cited from earlier work
[3] = molecular target: T1, L. major dihydrofolate reductase (LmDHFR), recombinant LmDHFR-TS (Leishmania major, UniProt P07382); assay: LmDHFR-TS enzyme inhibition assay (spectrophotometric, standard DHFR conditions); assay type: biochemical
T1 construct: made in house
Method: Then, using the Cheng–Prusoff equation and assuming reversible competitive inhibition and a 1:1 stoichiometry, the apparent inhibitory constant (Ki^app) was calculated for the selected kauranes using the IC50 results, as shown in Table 1.
Purification and kinetic characterization of the recombinant LmDHFR-TS protein was performed according to the previously reported procedures. The in vitro evaluation of selected diterpenoids (i.e., 4, 135, 301, 302, 301a, and 302a) for inhibitory activity against LmDHFR-TS was conducted using a spectrophotometric assay under standard DHFR conditions. The assay consisted of LmDHFR (2.7 nM), bovine serum albumin (BSA, 1 mg/mL), N-[tris(hydroxymethyl)-methyl]-2-aminoethanesulfonic acid (TES) buffer (100 mM, pH 7.0, […] β-mercaptoethanol, 2 mM ethylenediaminetetraacetic acid (EDTA)), and nicotinamide adenine dinucleotide phosphate (NADPH, 100 μM) with varying concentrations of the test compounds (0.1–128 μM). The reaction was initiated by adding the substrate (7,8-dihydrofolate (H2F), 20 μM) and was monitored for 360 s at 340 nm (i.e., oxidation of NADPH to NADP+) to determine the initial reaction rate (Vo) through linear regression analysis of the resulting absorbance profile. […] The Ki^app values were finally calculated using the Cheng–Prusoff equation for competitive inhibition with a 1:1 stoichiometry and reversible inhibitor-binding reactions: Ki^app = IC50/(1 + [S]/Km), where [S] is the substrate (H2F) concentration and Km is the Michaelis constant.

[4] = molecular target: T1, L. major dihydrofolate reductase (LmDHFR), recombinant LmDHFR-TS; assay: as above; assay type: biochemical; conditions: cutoff pIC50 value of the L. major machine learning model
[5] = IC50, LmDHFR 2.7 nM, NADPH 100 μM, H2F 20 μM, test compounds 0.1–128 μM, triplicate

T1 sequence (P07382 whole entry): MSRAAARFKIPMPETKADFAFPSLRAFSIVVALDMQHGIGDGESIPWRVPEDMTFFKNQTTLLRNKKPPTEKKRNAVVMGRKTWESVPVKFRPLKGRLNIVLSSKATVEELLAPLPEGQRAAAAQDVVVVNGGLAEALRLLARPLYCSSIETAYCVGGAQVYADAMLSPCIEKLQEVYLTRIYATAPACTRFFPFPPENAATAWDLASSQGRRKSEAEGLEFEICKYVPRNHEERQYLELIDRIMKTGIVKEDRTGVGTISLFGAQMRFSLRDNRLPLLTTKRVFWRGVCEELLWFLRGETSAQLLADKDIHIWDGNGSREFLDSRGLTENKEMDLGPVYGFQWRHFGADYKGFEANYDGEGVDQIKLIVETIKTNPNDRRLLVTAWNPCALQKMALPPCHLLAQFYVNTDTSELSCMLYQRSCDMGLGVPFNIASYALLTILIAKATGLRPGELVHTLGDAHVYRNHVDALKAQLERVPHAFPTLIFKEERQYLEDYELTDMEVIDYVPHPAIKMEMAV

SMILES | Ki^Lc^PTR1/Ki^Lc^DHFR-TS ratio [1] | half-maximal inhibitory concentrations (IC50) against PTR1 [2] | Ki [3] [µM] | IC50 [3, 5] [µM] | IC50 ([3]; pIC50, pIC50 = −log IC50) [µM] | classification against PTR1 [2] | reduction of Ki^app compared to kauranes 301 and 302 ([3]; effect of p-hydroxyl group, 301a vs 301, 302a vs 302) [%] | classification against DHFR-TS [4]
Nc1nc(N)c(Cc2ccccc2)c(CC2CCCCC2)n1 [2,4-diamine, 5-benzyl-6-(cyclohexylmethyl) pyrimidine-2,4-diamine] | 0.68 |  |  |  |  |  |  | 
C=C1CC23CCC4C(C)(CCC(OC(=O)C=Cc5ccccc5)C4(C)C(=O)O)C2CCC1C3 (stereo not drawn) [structure 302, 3α-cinnamoyloxy-ent-kaur-16-en-19-oic acid] |  | less than 10 µg/mL | 0.68 | 6.3 | < 10 |  |  | 
C=C1CC23CCC4C(C)(C(=O)OC5C=C(C)C(O)CC5C(C)C)CCCC4(C)C2CCC1C3 (stereo not drawn) [structure 135, 2β-hydroxy-menth-6-en-5β-yl ent-kaurenoate] |  |  | 1.2 | 11.2 |  |  |  | 
C=C1CC23CCC4C(C)(C(=O)O)C(OC(=O)C=Cc5ccc(O)cc5)CCC4(C)C2(O)CCC1C3 (stereo not drawn) [structure 301a, 3α-p-coumaroyloxy-9β-hydroxy-ent-kaur-16-en-19-oic acid] |  |  | 0.85 | 7.9 | < 10 | inactive | 10 | 
C=C1CC23CCC4C(C)(C(=O)O)C(OC(=O)C=Cc5ccccc5)CCC4(C)C2(O)CCC1C3 (stereo not drawn) [structure 301, 3α-cinnamoyloxy-9β-hydroxy-ent-kaur-16-en-19-oic Acid] |  |  | 0.94 | 8.8 | < 10 | inactive |  | active
CC1(C)OCC2(CC34CCC5C(C)(C)C(=O)CCC5(C)C3CCC2C4)O1 (stereo not drawn) [structure 4, 16ß,17-Isopropylidenedioxy-ent-kauran-3-one] |  |  | 0.81 | 7.6 |  |  |  | 

From article PMC10135059, “Kaurane-Type Diterpenoids as Potential Inhibitors of Dihydrofolate Reductase-Thymidylate Synthase in New World Leishmania Species” (Antibiotics, 2023)
